From patent US4185106A, “Pyridones as antidandruff agents” (Hoechst Aktiengesellschaft, priority 1972, dated 1980)
Counter-ions that a name gives are not always drawn.

Legend:
[1] = prior art compounds, cited from earlier work
[2] = in vivo
Text: [formula] a=ethanolamine salt of 1-hydroxy-4,6-dimethyl-2-pyridone b=zinc salt of 1-hydroxy-4,6-dimethyl-2-pyridone c=zinc salt of 1-hydroxy-4-methyl-6-(2,4,4-trimethyl-pentyl)2-pyridone d=ethanolamine salt of 1-hydroxy-4-methyl-6-cyclohexyl-2-pyridone, administered in starch mucilage e=zinc salt of 1-hydroxy-4-methyl-6-cyclohexyl-2-pyridoneand [formula]

[3] = system: dandruff; conditions: half-side washing repeated over several weeks at determined intervals
[4] = system: skin; conditions: J. Soc. Cosmet. Chem. 23 (1972), pages 100, 112; cited from earlier work

Question: Which stability to heat [1] does the source give for `On1ccccc1=S` [1-hydroxy-2-pyridine-thione] here?
Answer: Its stability to heat is “sensitive to heat”.

Question: What about the stability to light [1] of the same molecule?
Answer: Its stability to light is “not stable to light”.

Question: With `Cc1cc(C)n(O)c(=O)c1` [a, ethanolamine salt of 1-hydroxy-4,6-dimethyl-2-pyridone] as the molecule, how does the LD50 ([2]; in vivo) read?
Answer: Its LD50 is greater than 4480 mg/kg.

Question: Which LD50 ([2]; species and route not given) does the source give for `Cc1cc(C)n([O-])c(=O)c1.Cc1cc(C)n([O-])c(=O)c1.[Zn+2]` [b, zinc salt of 1-hydroxy-4,6-dimethyl-2-pyridone] here?
Answer: The LD50 was “more than 6400 mg/kg”.

Question: With `Cc1cc(CC(C)CC(C)(C)C)n([O-])c(=O)c1.Cc1cc(CC(C)CC(C)(C)C)n([O-])c(=O)c1.[Zn+2]` (stereo not drawn) [c, zinc salt of 1-hydroxy-4-methyl-6-(2,4,4-trimethyl-pentyl)2-pyridone] as the molecule, how does the LD50 ([2]; species and route not given) read?
Answer: Its LD50 is “more than 6400 mg/kg”.

Question: With `Cc1cc(C2CCCCC2)n(O)c(=O)c1` [d, ethanolamine salt of 1-hydroxy-4-methyl-6-cyclohexyl-2-pyridone] as the molecule, how does the LD50 ([2]; in vivo) read?
Answer: Its LD50 is 5500 mg/kg.

Question: With `Cc1cc(C2CCCCC2)n([O-])c(=O)c1.Cc1cc(C2CCCCC2)n([O-])c(=O)c1.[Zn+2]` [e, zinc salt of 1-hydroxy-4-methyl-6-cyclohexyl-2-pyridone] as the molecule, how does the LD50 ([2]; species and route not given) read?
Answer: Its LD50 is “more than 6400 mg/kg”.

Question: For `[O-]n1ccccc1=S.[O-]n1ccccc1=S.[Zn+2]` [g, zinc salt of 1-hydroxy-2-pyridine-thione], which LD50 ([2]; species and route not given) is on record?
Answer: The LD50 was 700 mg/kg.

Question: And the “removal of dandruff after standardized washing” value [3]?
Answer: Its value is “dandruff still showed in many cases”.

Question: What about the sensitivity to oxidation ([1]; mild oxidizing agents form 2,2'-dithio-bis(pyridine-1-oxide)) of the same molecule?
Answer: The sensitivity to oxidation was “sensitive to oxidation”.

Question: Which stability to hydrolysis [1] does the source give for `On1ccccc1=S.[Na]` [sodium-1-hydroxy-2-pyridine-thione] here?
Answer: Its stability to hydrolysis is “not stable to hydrolysis”.

Question: And the dermal toxicity [4]?
Answer: The dermal toxicity was “considerable dermal toxicity”.
